According to ChEMBL document CHEMBL1132307, “(2R,1'S,2'R,3'S)-2-(2'-Carboxy-3'-phenylcyclopropyl)glycine (PCCG-13), the first potent and selective competitive antagonist of phospholipase D-coupled metabotropic glutamate receptors: asymmetric synthesis and preliminary biological properties” (J Med Chem, 1999):

Legend:
Format in all cases: functional, tissue-based
Settings in all cases: Hippocampus
[1] = Agonistic activity against phospholipase D (PLD) was determined in adult rat hippocampal slices
[2] = Antagonistic activity against phospholipase D (PLD) was determined in adult rat hippocampal slices
[3] = Antagonistic activity against phospholipase C (PLC) was determined in adult rat hippocampal slices

| Structure (SMILES) | EC50 [1] [µM] | IC50 [2] [µM] | IC50 [3] [µM] |
| --- | --- | --- | --- |
| N[C@@]1(C(=O)O)CC[C@@H](C(=O)O)C1 | 30 |  |  |
| N[C@H](C(=O)O)c1cc(O)cc(O)c1 |  | 70 |  |
| NC(C(=O)O)[C@@H]1[C@H](C(=O)O)[C@H]1c1ccccc1 (stereo partly specified) |  | 0.025 | > 300 |
| CC(N)(C(=O)O)c1ccc(C(=O)O)cc1 (stereo unspecified) | 110 | 530 |  |
